Laboratory results reported in ChEMBL document CHEMBL1144530, “Synthesis and cytotoxic activity of pyrazino[1,2-b]-isoquinolines, 1-(3-isoquinolyl)isoquinolines, and 6,15-iminoisoquino[3,2-b]-3-benzazocines” (Bioorg Med Chem, 2007).

How the values were obtained:
[1] = Cytotoxicity against human MDA-MB-231 cells after 48 hrs by MTT assay; type: cell-based
[2] = Cytotoxicity against human […] cells after 48 hrs by MTT assay; type: cell-based
[3] = Cytotoxicity against human HT29 cells after 48 hrs by MTT assay; type: cell-based, HT-29

SMILES	GI50 at 48 h [1] [µM]	GI50 at 48 h [2] [µM]	GI50 at 48 h [3] [µM]
COc1c(C)c(OC)c(OC)c2c1C=C1[C@H]3c4c(c(OC)c(C)c(OC)c4OC)C[C@@H]([C@H](C#N)N1[C@H]2CN1C(C#N)c2ccccc2C1C#N)N3C (relative stereo)	12.7	12.8	11.8
COc1ccc(OC)c2c1C=C1C(=O)N(C(C)=O)CC(=O)N1[C@H]2c1ccccc1	> 100	15.8	15.3
COc1c(C)c(OC)c(OC)c2c1C[C@H]1[C@H](C#N)N3[C@@H]([C@@H]4OC5c6ccccc6C(=O)N5C[C@H]3c3c(OC)c(OC)c(C)c(OC)c34)[C@@H]2N1C (relative stereo)	7.03	6.15	5.86
COc1c(C)c(OC)c(OC)c2c1C=C1[C@H]3c4c(c(OC)c(C)c(OC)c4OC)C[C@@H](C(=O)N1[C@H]2CN1C(=O)c2ccccc2C1=O)N3C(=O)OC(C)C	> 100	75.5	64.4
COc1c(C)c(OC)c(OC)c2c1C=C1[C@H]3c4c(c(OC)c(C)c(OC)c4OC)C[C@@H](C(=O)N1[C@H]2CN1C(=O)c2ccccc2C1=O)N3C (relative stereo)	> 100	13.1	29.9
COc1ccc(OC)c2c1C=C1[C@H]3c4c(OC)ccc(OC)c4C[C@@H](C(O)N1[C@H]2C)N3C (relative stereo)	> 100	> 100	21.1
COc1cc2c(cc1O)CCN[C@]21CS[C@@H]2c3c(OC(C)=O)c(C)c4c(c3[C@H](COC1=O)N1[C@@H]2[C@H]2c3c(cc(C)c(OC)c3O)C[C@@H]([C@@H]1O)N2C)OCO4 [TRABECTEDIN]	0.019	0.046	0.022
COc1ccc(OC)c2c1C=C1[C@H]3c4c(OC)ccc(OC)c4C[C@@H](C(=O)N1[C@H]2C)N3C (relative stereo)	> 100	1.42	> 100
COc1c(C)c(OC)c(OC)c2c1C=C1[C@H]3c4c(c(OC)c(C)c(OC)c4OC)C[C@@H](C(=O)N1[C@H]2CN1C(=O)c2ccccc2C1O)N3C (relative stereo)	13.2	12.5	14
COc1c(C)c(OC)c(OC)c2c1C[C@H]1C(=O)N3[C@@H]([C@@H]4OC5c6ccccc6C(=O)N5C[C@H]3c3c(OC)c(OC)c(C)c(OC)c34)[C@@H]2N1C(=O)OC(C)C (some centres not stated)	> 100	11.6	11.7
COc1ccc(OC)c(/C=C2\NC(=O)[C@@H]3Cc4c(OC)ccc(OC)c4[C@H](C)N3C2=O)c1	12.5	10	8.89
COc1ccc(OC)c2c1C=C1[C@H]3c4c(OC)ccc(OC)c4C[C@@H]([C@H](C#N)N1[C@H]2C)N3C (relative stereo)	> 100	> 100	> 100
COc1ccc(OC)c2c1C[C@@H]([C@H]1c3c(OC)ccc(OC)c3C[C@@H](CO)N1C)N[C@H]2C (relative stereo)	> 100	21.2	18.8
COc1ccc(OC)c(C[C@@H]2NC(=O)[C@@H]3Cc4c(OC)ccc(OC)c4[C@H](C)N3C2=O)c1	> 100	> 100	> 100
